Laboratory results: the supplement of paper PMC8149375

Tests used:
Details in all cases: treatment: drug + dasatinib (fixed dose, not stated); 5 days
769-P [1] = assay: GI50 of drug in presence of dasatinib; higher = less potent
Protocol: (§1)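 Primary HTS combination arm: 8 RCC cell lines treated with 8 doses (up to 10 uM) of each library drug plus a fixed dose of dasatinib (dose not stated) for 5 days; viability read by CellTiter-Glo and normalised to DMSO. GI50 was fitted with XLfit, AUC is the area under the dose-response curve, and minimum viability is the lowest fraction of DMSO viability across doses.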

786-O [2] = assay: as above
Protocol: as §1

A498 [3] = assay: as above
Protocol: as §1

ACHN [4] = assay: as above
Protocol: as §1

CAKI-1 [5] = assay: as above
Protocol: as §1

SN12C [6] = assay: as above
Protocol: as §1

TK-10 [7] = assay: as above
Protocol: as §1

UO-31 [8] = assay: as above
Protocol: as §1

769-P [9] = assay: minimum viability across doses, drug + dasatinib, relative to DMSO (fraction); higher = less growth inhibition
Protocol: as §1

786-O [10] = assay: as above
Protocol: as §1

A498 [11] = assay: as above
Protocol: as §1

ACHN [12] = assay: as above
Protocol: as §1

CAKI-1 [13] = assay: as above
Protocol: as §1

SN12C [14] = assay: as above
Protocol: as §1

TK-10 [15] = assay: as above
Protocol: as §1

UO-31 [16] = assay: as above
Protocol: as §1

769-P [17] = assay: AUC of dose-response viability curve, drug + dasatinib, normalised to DMSO (arbitrary (AUC of normalised viability)); higher = less growth inhibition
Protocol: as §1

786-O [18] = assay: as above
Protocol: as §1

A498 [19] = assay: as above
Protocol: as §1

ACHN [20] = assay: as above
Protocol: as §1

CAKI-1 [21] = assay: as above
Protocol: as §1

SN12C [22] = assay: as above
Protocol: as §1

TK-10 [23] = assay: as above
Protocol: as §1

UO-31 [24] = assay: as above
Protocol: as §1

Row | Structure (SMILES) | GI50 of drug (769-P [1]) [µM] | GI50 of drug (786-O [2]) [µM] | GI50 of drug (A498 [3]) [µM] | GI50 of drug (ACHN [4]) [µM] | GI50 of drug (CAKI-1 [5]) [µM] | GI50 of drug (SN12C [6]) [µM] | GI50 of drug (TK-10 [7]) [µM] | GI50 of drug (UO-31 [8]) [µM] | minimum viability across doses (769-P [9]) | minimum viability across doses (786-O [10]) | minimum viability across doses (A498 [11]) | minimum viability across doses (ACHN [12]) | minimum viability across doses (CAKI-1 [13]) | minimum viability across doses (SN12C [14]) | minimum viability across doses (TK-10 [15]) | minimum viability across doses (UO-31 [16]) | AUC of dose-response viability curve (769-P [17]) | AUC of dose-response viability curve (786-O [18]) | AUC of dose-response viability curve (A498 [19]) | AUC of dose-response viability curve (ACHN [20]) | AUC of dose-response viability curve (CAKI-1 [21]) | AUC of dose-response viability curve (SN12C [22]) | AUC of dose-response viability curve (TK-10 [23]) | AUC of dose-response viability curve (UO-31 [24])
1 | COc1cc2c(N3CCN(C(=O)Nc4ccc(OC(C)C)cc4)CC3)ncnc2cc1OCCCN1CCCCC1 [Tandutinib (MLN518)] + Cc1nc(Nc2ncc(C(=O)Nc3c(C)cccc3Cl)s2)cc(N2CCN(CCO)CC2)n1 [dasatinib] | > 10 | > 10 | > 10 | 3.27 | 4.78 | > 10 | > 10 | > 10 | 0.555 | 0.523 | 0.705 | 0.387 | 0.384 | 0.644 | 0.647 | 0.527 | 2.45 | 2.67 | 2.96 | 2.15 | 2.35 | 2.45 | 2.83 | 3.35
2 | CNC(=O)c1cc(COc2nnc(Nc3ccc(Cl)cc3)c3ccoc23)ccn1 [Telatinib (BAY 57-9352)] + Cc1nc(Nc2ncc(C(=O)Nc3c(C)cccc3Cl)s2)cc(N2CCN(CCO)CC2)n1 [dasatinib] | 5.53 | 4 | > 10 | 7.5 | 3.47 | > 10 | 4.84 | > 10 | 0.355 | 0.0325 | 0.784 | 0.474 | 0.188 | 0.673 | 0.334 | 0.989 | 2.25 | 2.23 | 3.74 | 2.22 | 2.19 | 2.51 | 2.45 | 4
3 | CC(=O)Nc1ccc(NC(=S)NC(=O)c2ccc(C(C)(C)C)cc2)cc1 [Tenovin-1] + Cc1nc(Nc2ncc(C(=O)Nc3c(C)cccc3Cl)s2)cc(N2CCN(CCO)CC2)n1 [dasatinib] | 0.554 | 0.264 | 0.854 | 1.2 | > 10 | > 10 | 2.84 | 0.825 | 0.125 | 0.00416 | 0.0745 | 0.385 | 0.498 | 0.656 | 0.342 | 0.0071 | 1.91 | 1.53 | 2.71 | 1.95 | 2.19 | 2.47 | 2.2 | 3
4 | O=C1CCC(N2C(=O)c3ccccc3C2=O)C(=O)N1 (stereo not drawn) [Thalidomide] + Cc1nc(Nc2ncc(C(=O)Nc3c(C)cccc3Cl)s2)cc(N2CCN(CCO)CC2)n1 [dasatinib] | > 10 | > 10 | > 10 | > 10 | > 10 | > 10 | > 10 | > 10 | 0.666 | 0.556 | 0.971 | 0.555 | 0.638 | 0.679 | 0.665 | 1.03 | 2.54 | 2.49 | 3.94 | 2.17 | 2.35 | 2.52 | 2.48 | 4.13
5 | O=C(NCc1ccccc1)c1csc(Nc2ccncn2)n1 [Thiazovivin] + Cc1nc(Nc2ncc(C(=O)Nc3c(C)cccc3Cl)s2)cc(N2CCN(CCO)CC2)n1 [dasatinib] | 2.83 | 2.39 | > 10 | 2.07 | 1.87 | > 10 | > 10 | 1.65 | 0.318 | 0.327 | 0.777 | 0.225 | 0.175 | 0.694 | 0.494 | 0.0123 | 2.27 | 2.04 | 3.03 | 2.12 | 2.04 | 2.56 | 2.73 | 2.79
6 | COc1ccc2cc(-c3[nH]c(-c4ccc(S(C)=O)cc4)nc3-c3ccncc3)ccc2c1 (stereo not drawn) [Tie2 kinase inhibitor] + Cc1nc(Nc2ncc(C(=O)Nc3c(C)cccc3Cl)s2)cc(N2CCN(CCO)CC2)n1 [dasatinib] | > 10 | 8.92 | > 10 | > 10 | > 10 | > 10 | > 10 | > 10 | 0.595 | 0.468 | 0.97 | 0.521 | 0.657 | 0.64 | 0.68 | 1.07 | 2.36 | 2.51 | 3.88 | 2.03 | 2.41 | 2.4 | 2.69 | 4.56
7 | COc1cc2nccc(Oc3ccc(NC(=O)Nc4cc(C)on4)c(Cl)c3)c2cc1OC [Tivozanib (AV-951)] + Cc1nc(Nc2ncc(C(=O)Nc3c(C)cccc3Cl)s2)cc(N2CCN(CCO)CC2)n1 [dasatinib] | 1.57 | > 10 | 9.89 | 1.63 | 0.743 | 1.95 | 9.67 | 4.15 | 0.146 | 0.569 | 0.457 | 0.0982 | 0.0242 | 0.134 | 0.493 | 0.0455 | 2.1 | 2.68 | 3.13 | 1.95 | 1.75 | 2.12 | 2.55 | 3.32
